Where a SMILES comes first, the peptide text is derived from it.
Key:
[1] = test system: ZIKV DakAr41524 (Senegal 1984); test: Focus forming assay, ZIKV strain panel; format: cell-based, Zika virus; conditions: 50 µM and 100 µM peptide vs OVA control, FFA
Procedure: (§1) For all our experiments in Fig. 1, we used the PRVABC59 (Puerto Rico 2015) strain of ZIKV. […] The Yodha peptide inhibited all ZIKV strains (Fig. 1H,I).
(§2) Peptides were incubated with ZIKV (100 FFU/well) for 2 h at 37 °C. This incubated mixture was used to infect Vero cells for 1.5 h at 37 °C. Cells and inoculum were overlaid with 2% methylcellulose solution (OptiMEM; Gibco) and incubated for 72 h at 37 °C. Cells were washed with PBS and fixed with a 1:1 methanol/acetone mixture for 30 min. Cells were blocked with 5% milk/PSB at room temperature for 20 min and incubated with primary antibody (anti-flavivirus mouse 4G2[10] antibody) for 2 h at 37 °C. Then, cells were incubated with secondary antibody (HRP-conjugated goat anti-mouse IgG, Cell Signaling) for 1 h at 37 °C. Cells were developed with TrueBlue Peroxidase Substrate (KPL). Plates were read on a CTL-ImmunoSpot S6 Micro analyzer.

[2] = test system: ZIKV MR-766 (Uganda, 1947); test: Focus forming assay, ZIKV strain panel; format: cell-based, Zika virus; conditions: 50 µM and 100 µM peptide vs OVA control, FFA
Procedure: as §1, §2

[3] = test system: ZIKV P6-740 (Malaysia, 1966); test: Focus forming assay, ZIKV strain panel; format: cell-based, Zika virus; conditions: 50 µM and 100 µM peptide vs OVA control, FFA
Procedure: as §1, §2

[4] = test system: ZIKV; test: ZIKV entry into Vero cells, viral RNA by qRT-PCR; format: cell-based, Zika virus; conditions: ZIKV treated with 200 µM peptide for 30 min, MOI 0.5, 30 min infection, qRT-PCR normalised to GAPDH
Procedure: (§3) Next, we determined whether the observed Yodha peptide-induced decrease in viral titers was due to blocked viral entry. We reasoned that if the peptide directly kills or disrupts the envelope structure of ZIKV, this would prevent virus entry. To test this, we designed an experiment to measure virus entry, by allowing ZIKV to bind cells at 4 °C for 1 h followed by shifting the cells to 37 °C to permit virus entry (Fig. 2A). It has been shown that DENV2 entry occurs within 25 min by early endosome trafficking. Briefly, we exposed ZIKV to Yodha peptide and then allowed the virus to infect Vero cells for 30 min. We then measured viral RNA within the Vero cells by quantitative Real Time-PCR (qRT-PCR) (Fig. 2B). […] Next, we visualized ZIKV entry or lack thereof by immunofluorescence using antibodies against pan flavivirus E protein. […] We collected culture supernatants at 3, 24, 48, and 72 h after ZIKV infection to quantitate ZIKV by FFU assay (Fig. 2E). ZIKV was not detected at 3 h post-infection in both OVA- or Yodha-treated cells. […]
Figure 2 Yodha peptide inhibits ZIKV entry into cells. […] (B) ZIKV was treated with 200 µM of Yodha or control OVA peptide for 30 min and then used to infect Vero cells at a MOI of 0.5 and expression of ZIKV RNA was determined by quantitative RT-PCR (qRT-PCR). […] Error bars indicate the SEM of four technical replicates statistical significance was assessed by a 2-way ANOVA. […]

[5] = test system: human red blood cells; format: cell-based
Procedure: Single donor human red blood cells (Innovative Research) were washed in PBS (pH 7.4) with three times centrifugation at 500 × g for 5 min. Serially diluted frog peptides or OVA control peptide were prepared in V-bottom 96 well plates and mixed with washed 2 × 10^7 human RBC per each well for 1 h at 37 °C. PBS solution was used as a negative control (0% lysis), and 0.1% Triton X-100 in PBS was used as 100% lysis. The plates were centrifuged at 300 × g at 4 °C for 5 min to pellet the intact RBCs and supernatant of each well was measured by absorbance at 450 nm.

[6] = test system: ZIKV; test: Transmission electron microscopy of peptide-treated ZIKV; parameters: species or system Zika virus; conditions: 200 µM peptide, 10 min, negative staining TEM
Procedure: To test this, we treated ZIKV with Yodha peptide or control peptide for 10 min and analyzed virus particles by electron microscopy.
(A) TEM micrographs of ZIKV treated with OVA (control) or Yodha peptide are shown. ZIKV were incubated with the peptides at 200 µM for just 10 min, fixed with paraformaldehyde and then processed for electron microscopy. Yodha treatment led to loss of morphology and aggregation of virus particles. (B) Enlarged images of ZIKV treated with control or Yodha peptide from (A) are shown. The data is representative of three experiments performed.
ZIKV samples were fixed with 4% buffered paraformaldehyde before negative staining. 5 µl of Zika sample was then deposited onto a 400-mesh carbon-coated copper grid that had been treated by glow-discharged for 20 s and allowed 5 min for the sample to settle in a covered glass dish. The grids with samples were then quickly washed by touching the sample side on two drops double distilled water, wick with filter paper, and then stained with 1% phosphotungstic acid (PTA) for 15 s before removing PTA with filter paper. Zika virus was imaged on a JEOL JEM-1400 transmission electron microscope (JEOL Ltd., Tokyo, Japan) equipped with a Gatan US1000 CCD camera (Gatan, Pleasanton, CA).

[7] = test system: ZIKV; test: Post-infection treatment of ZIKV-infected Vero cells, FFU assay of supernatants; format: cell-based, Zika virus; conditions: 40 µM peptide added after infection, FFU of supernatant
Procedure: as §3
Figure 2 Yodha peptide inhibits ZIKV entry into cells. […] (B) ZIKV was treated with 200 µM of Yodha or control OVA peptide for 30 min and then used to infect Vero cells at a MOI of 0.5 and expression of ZIKV RNA was determined by quantitative RT-PCR (qRT-PCR). […] Error bars indicate the SEM of four technical replicates statistical significance was assessed by a 2-way ANOVA.

For CC[C@H](C)[C@H](NC(=O)[C@@H](NC(=O)CNC(=O)[C@H](CC(C)C)NC(=O)[C@H](Cc1ccccc1)NC(=O)[C@H](Cc1ccccc1)NC(=O)[C@H](CC(C)C)NC(=O)[C@H](CC(C)C)NC(=O)[C@H](CC(C)C)NC(=O)[C@H](CCSC)NC(=O)[C@@H](N)CO)[C@@H](C)O)C(=O)N[C@@H](CO)C(=O)N[C@@H](CC(C)C)C(=O)N[C@@H](CO)C(=O)N[C@@H](CC(C)C)C(=O)N[C@@H](CS)C(=O)N[C@@H](CCC(N)=O)C(=O)N[C@@H](CC(=O)O)C(=O)N[C@@H](CC(=O)O)C(=O)N[C@@H](CCC(N)=O)C(=O)N[C@@H](CCC(=O)O)C(=O)N[C@@H](CCCNC(=N)N)C(=O)N[C@@H](CS)C(=O)O [Yodha] (H-SMLLLFFLGTISLSLCQDDQERC-OH; N-terminus and C-terminus assumed), the “inhibition of ZIKV strain” value [1] was “inhibited”, the “inhibition of ZIKV strain” value [2] was “inhibited” and the “inhibition of ZIKV strain” value [3] was “inhibited”. The “ZIKV RNA expressed compared to the OVA and virus-only controls” value [4] was 20%, the “cytotoxicity against human erythrocytes (screen of the 12 hits)” value [5] was “no cytotoxicity” and the “virus particle integrity by electron microscopy” value [6] was “disruption of viral particles”. The “reduction in ZIKV production” value ([7]; 48 h post-infection) was 60–70% and the “reduction in ZIKV production” value ([7]; 72 h post-infection) was 60–70%.
